The term EC50 denotes the concentration that produces a half-maximal response.

The values below come from ChEMBL document CHEMBL1148480, “Structure-activity studies of orexin a and orexin B at the human orexin 1 and orexin 2 receptors led to orexin 2 receptor selective and orexin 1 receptor preferring ligands” (J Med Chem, 2004).

The target in one assay is T1, Orexin receptor type 2 (Homo sapiens, UniProt O43614).
T1 sequence (O43614 whole entry): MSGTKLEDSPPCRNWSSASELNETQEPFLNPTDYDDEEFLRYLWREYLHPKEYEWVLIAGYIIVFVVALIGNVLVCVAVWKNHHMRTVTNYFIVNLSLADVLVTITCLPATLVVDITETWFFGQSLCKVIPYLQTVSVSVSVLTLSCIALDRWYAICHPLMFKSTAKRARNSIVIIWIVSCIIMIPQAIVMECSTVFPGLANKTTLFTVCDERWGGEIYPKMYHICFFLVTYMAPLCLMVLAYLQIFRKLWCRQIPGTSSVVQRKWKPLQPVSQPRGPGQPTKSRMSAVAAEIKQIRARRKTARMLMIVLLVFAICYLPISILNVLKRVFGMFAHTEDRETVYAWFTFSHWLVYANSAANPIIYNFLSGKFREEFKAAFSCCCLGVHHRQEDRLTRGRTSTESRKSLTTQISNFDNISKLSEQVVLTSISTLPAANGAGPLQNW
Description: Effective agonist concentration to the human Orexin receptor type 2 was determined using the Xlfit program. It counts as functional.

Assay [1] concerns the target T2, Orexin/Hypocretin receptor type 1 (Homo sapiens, UniProt O43613).
T2 sequence (O43613 whole entry): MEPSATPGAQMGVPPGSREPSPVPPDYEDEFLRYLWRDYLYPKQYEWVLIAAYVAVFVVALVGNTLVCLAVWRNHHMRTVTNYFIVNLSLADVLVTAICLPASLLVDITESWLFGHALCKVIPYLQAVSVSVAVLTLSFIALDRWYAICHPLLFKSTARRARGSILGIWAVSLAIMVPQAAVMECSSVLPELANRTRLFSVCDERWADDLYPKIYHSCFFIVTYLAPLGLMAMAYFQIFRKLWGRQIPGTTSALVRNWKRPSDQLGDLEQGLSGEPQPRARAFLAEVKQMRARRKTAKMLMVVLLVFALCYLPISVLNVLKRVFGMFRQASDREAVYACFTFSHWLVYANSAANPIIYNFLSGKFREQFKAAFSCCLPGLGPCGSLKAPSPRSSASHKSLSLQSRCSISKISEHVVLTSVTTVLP
Kind of assay: Effective agonist concentration to human orexin receptor type 1 determined using the Xlfit program. It is filed as functional.

Non-standard residues stand in square brackets, D forms with d. Residues, ends and D or L forms follow the SMILES beside them. pGlu = O=C1CC[C@@H](C(=O)O)N1

For `CC[C@H](C)[C@H](NC(=O)CNC(=O)[C@H](C)NC(=O)[C@H](C)NC(=O)[C@H](Cc1cnc[nH]1)NC(=O)[C@@H](N)CC(N)=O)C(=O)N[C@@H](CC(C)C)C(=O)N[C@H](C(=O)N[C@@H](CC(C)C)C(=O)O)[C@@H](C)O` (H-NHAAGILTL-OH), the EC50 (on Orexin receptor type 2; in assay [1]) was over 1000 µM each time.

Turning to `CC[C@H](C)[C@H](NC(=O)CNC(=O)[C@H](C)NC(=O)[C@H](C)NC(=O)[C@H](Cc1cnc[nH]1)NC(=O)[C@H](CC(N)=O)NC(=O)CNC(=O)[C@H](CO)NC(=O)[C@H](C)NC(=O)[C@H](CCC(N)=O)NC(=O)[C@H](CC(C)C)NC(=O)[C@H](CC(C)C)NC(=O)[C@H](CCCNC(=N)N)NC(=O)[C@H](CCC(N)=O)NC(=O)[C@H](CC(C)C)NC(=O)[C@@H](N)CCCNC(=N)N)C(=O)N[C@@H](CC(C)C)C(=O)N[C@H](C(=O)N[C@@H](CCSC)C(=O)O)[C@@H](C)O` (H-RLQRLLQASGNHAAGILTM-OH), the results for the EC50 (at Orexin receptor type 2; in assay [1]) were 0.57 µM and over 1000 µM, respectively.

With `CC[C@H](C)[C@H](NC(=O)CNC(=O)[C@H](C)NC(=O)[C@H](C)NC(=O)[C@H](Cc1cnc[nH]1)NC(=O)[C@H](CC(N)=O)NC(=O)CNC(=O)[C@H](C)NC(=O)CNC(=O)[C@H](Cc1cnc[nH]1)NC(=O)[C@H](CC(C)C)NC(=O)[C@H](CC(C)C)NC(=O)[C@H](CCC(=O)O)NC(=O)[C@H](Cc1ccc(O)cc1)NC(=O)[C@H](CC(C)C)NC(=O)[C@@H](N)CCCNC(=N)N)C(=O)N[C@@H](CC(C)C)C(=O)N[C@H](C(=O)N[C@@H](CC(C)C)C(=O)O)[C@@H](C)O` (H-RLYELLHGAGNHAAGILTL-OH), the EC50 was 0.42 µM on Orexin receptor type 2 and 1.79 µM in assay [1].

As to `CC[C@H](C)[C@H](NC(=O)CNC(=O)[C@H](C)NC(=O)[C@H](C)NC(=O)[C@H](Cc1cnc[nH]1)NC(=O)[C@H](CC(N)=O)NC(=O)CNC(=O)[C@H](C)NC(=O)CNC(=O)[C@H](Cc1cnc[nH]1)NC(=O)[C@H](CC(C)C)NC(=O)[C@H](CC(C)C)NC(=O)[C@H](CCC(=O)O)NC(=O)[C@H](Cc1ccc(O)cc1)NC(=O)[C@H](CC(C)C)NC(=O)[C@H](CCCNC(=N)N)NC(=O)[C@H](CS)NC(=O)[C@H](CO)NC(=O)[C@H](CS)NC(=O)[C@@H](NC(=O)[C@H](CCCCN)NC(=O)[C@H](CCC(N)=O)NC(=O)[C@@H](N)CCCNC(=N)N)[C@@H](C)O)C(=O)N[C@@H](CC(C)C)C(=O)N[C@H](C(=O)N[C@@H](CC(C)C)C(=O)O)[C@@H](C)O` (H-RQKTCSCRLYELLHGAGNHAAGILTL-OH), the EC50 at Orexin receptor type 2 was found to be 0.29 µM; in assay [1], 0.68 µM.

For the molecule `CC(C)C[C@H](NC(=O)CNC(=O)[C@@H]1CCCN1C(=O)[C@@H]1CCCN1C(=O)CNC(=O)[C@H](CO)NC(=O)[C@@H](N)CCCN=C(N)N)C(=O)N[C@@H](CCC(N)=O)C(=O)NCC(=O)N[C@@H](CCCN=C(N)N)C(=O)O` (H-RSGPPGLQGR-OH), the EC50 (on Orexin receptor type 2; in assay [1]) was over 1000 µM each time.

For the molecule `CC(C)C[C@H](NC(=O)CNC(=O)[C@@H]1CCCN1C(=O)[C@@H]1CCCN1C(=O)CNC(=O)[C@H](CO)NC(=O)[C@@H](N)CCCN=C(N)N)C(=O)N[C@@H](CCC(N)=O)C(=O)NCC(=O)N[C@@H](CCCN=C(N)N)C(=O)N[C@@H](CC(C)C)C(=O)N[C@@H](CCC(N)=O)C(=O)N[C@@H](CCCN=C(N)N)C(=O)O` (H-RSGPPGLQGRLQR-OH), the EC50 (at Orexin receptor type 2; in assay [1]) was over 1000 µM in each case.

Turning to `CC(C)C[C@H](NC(=O)CNC(=O)[C@@H]1CCCN1C(=O)[C@@H]1CCCN1C(=O)CNC(=O)[C@H](CO)NC(=O)[C@@H](N)CCCN=C(N)N)C(=O)N[C@@H](CCC(N)=O)C(=O)NCC(=O)N[C@@H](CCCN=C(N)N)C(=O)N[C@@H](CC(C)C)C(=O)N[C@@H](CCC(N)=O)C(=O)N[C@@H](CCCN=C(N)N)C(=O)N[C@@H](CC(C)C)C(=O)N[C@@H](CC(C)C)C(=O)N[C@@H](CCC(N)=O)C(=O)O` (H-RSGPPGLQGRLQRLLQ-OH), the EC50 (at Orexin receptor type 2; in assay [1]) was over 1000 µM in each case.

`CC(C)C[C@H](NC(=O)CNC(=O)[C@@H]1CCCN1C(=O)[C@@H]1CCCN1C(=O)CNC(=O)[C@H](CO)NC(=O)[C@@H](N)CCCNC(=N)N)C(=O)N[C@@H](CCC(N)=O)C(=O)NCC(=O)N[C@@H](CCCNC(=N)N)C(=O)N[C@@H](CC(C)C)C(=O)N[C@@H](CCC(N)=O)C(=O)N[C@@H](CCCNC(=N)N)C(=O)N[C@@H](CC(C)C)C(=O)N[C@@H](CC(C)C)C(=O)N[C@@H](CCC(N)=O)C(=O)N[C@@H](C)C(=O)N[C@@H](CO)C(=O)NCC(=O)N[C@@H](CC(N)=O)C(=O)N[C@@H](Cc1cnc[nH]1)C(=O)O` (H-RSGPPGLQGRLQRLLQASGNH-OH): the EC50 (on Orexin receptor type 2; in assay [1]) was over 1000 µM in each case.

As to `CC[C@H](C)[C@H](NC(=O)CNC(=O)[C@H](C)NC(=O)[C@H](C)NC(=O)[C@H](Cc1cnc[nH]1)NC(=O)[C@H](CC(N)=O)NC(=O)CNC(=O)[C@H](C)NC(=O)CNC(=O)[C@H](Cc1cnc[nH]1)NC(=O)[C@H](CC(C)C)NC(=O)[C@H](CC(C)C)NC(=O)[C@H](CCC(=O)O)NC(=O)[C@H](Cc1ccc(O)cc1)NC(=O)[C@H](CC(C)C)NC(=O)[C@H](CCCNC(=N)N)NC(=O)[C@H](CS)NC(=O)[C@@H](N)CO)C(=O)N[C@@H](CC(C)C)C(=O)N[C@H](C(=O)N[C@@H](CC(C)C)C(=O)O)[C@@H](C)O` (H-SCRLYELLHGAGNHAAGILTL-OH), the figures for the EC50 (on Orexin receptor type 2; in assay [1]) were 0.45 µM and 1.03 µM, respectively.

As for `CC[C@H](C)[C@H](NC(=O)CNC(=O)[C@H](C)NC(=O)[C@H](C)NC(=O)[C@H](Cc1c[nH]cn1)NC(=O)[C@H](CC(N)=O)NC(=O)CNC(=O)[C@@H](N)CO)C(=O)N[C@@H](CC(C)C)C(=O)N[C@H](C(=O)N[C@@H](CCSC)C(=O)O)[C@@H](C)O` (H-SGNHAAGILTM-OH), the EC50 (on Orexin receptor type 2; in assay [1]) was over 1000 µM throughout.

As to `CC[C@H](C)[C@H](NC(=O)CNC(=O)[C@H](C)NC(=O)[C@H](C)NC(=O)[C@H](Cc1cnc[nH]1)NC(=O)[C@H](CC(N)=O)NC(=O)CNC(=O)[C@H](C)NC(=O)CNC(=O)[C@H](Cc1cnc[nH]1)NC(=O)[C@H](CC(C)C)NC(=O)[C@H](CC(C)C)NC(=O)[C@H](CCC(=O)O)NC(=O)[C@H](Cc1ccc(O)cc1)NC(=O)[C@H](CC(C)C)NC(=O)[C@H](CCCNC(=N)N)NC(=O)[C@H](CS)NC(=O)[C@H](CO)NC(=O)[C@H](CS)NC(=O)[C@@H](N)[C@@H](C)O)C(=O)N[C@@H](CC(C)C)C(=O)N[C@H](C(=O)N[C@@H](CC(C)C)C(=O)O)[C@@H](C)O` (H-TCSCRLYELLHGAGNHAAGILTL-OH), the results for the EC50 (on Orexin receptor type 2; in assay [1]) were 0.38 µM and 1.21 µM, respectively.

As for `CC[C@H](C)[C@H](NC(=O)CNC(=O)[C@H](C)NC(=O)[C@H](C)NC(=O)[C@H](Cc1cnc[nH]1)NC(=O)[C@H](CC(N)=O)NC(=O)CNC(=O)[C@H](C)NC(=O)CNC(=O)[C@H](Cc1cnc[nH]1)NC(=O)[C@H](CC(C)C)NC(=O)[C@H](CC(C)C)NC(=O)[C@H](CCC(=O)O)NC(=O)[C@H](Cc1ccc(O)cc1)NC(=O)[C@H](CC(C)C)NC(=O)[C@H](CCCNC(=N)N)NC(=O)CNC(=O)[C@@H]1CCCN1C(=O)[C@H](CC(=O)O)NC(=O)[C@@H]1CCCN1C(=O)[C@H](CC(C)C)NC(=O)[C@@H]1CCCN1C(=O)[C@@H]1CCC(=O)N1)C(=O)N[C@@H](CC(C)C)C(=O)N[C@H](C(=O)N[C@@H](CC(C)C)C(=O)O)[C@@H](C)O` ([pGlu]PLPDPGRLYELLHGAGNHAAGILTL-OH), the concentration for a half-maximal effect (EC50) was 0.61 µM on Orexin receptor type 2 and 4.52 µM in assay [1].

With `CC[C@H](C)[C@H](NC(=O)CNC(=O)[C@H](C)NC(=O)[C@H](C)NC(=O)[C@H](Cc1cnc[nH]1)NC(=O)[C@H](C)NC(=O)CNC(=O)[C@H](CO)NC(=O)[C@H](C)NC(=O)[C@H](CCC(N)=O)NC(=O)[C@H](CC(C)C)NC(=O)[C@H](CC(C)C)NC(=O)[C@H](CCCNC(=N)N)NC(=O)[C@H](CCC(N)=O)NC(=O)[C@H](CC(C)C)NC(=O)[C@H](CCCNC(=N)N)NC(=O)CNC(=O)[C@H](CCC(N)=O)NC(=O)[C@H](CC(C)C)NC(=O)CN)C(=O)N[C@@H](CC(C)C)C(=O)N[C@H](C(=O)N[C@@H](CCSC)C(=O)O)[C@@H](C)O` (stereo in doubt; form 2), the EC50 at Orexin receptor type 2 was 0.32 µM; in assay [1], 2.18 µM.
